Experimental data reported in patent US11344534B2, “Cholinergic agonism for the treatment of pancreatic cancer” (priority 2017, dated 2022).
Entries after “also recorded” stand apart in the source; their conditions may differ.

Columns and labels:
[1] = test system: PDA patients; assay: Pilot feasibility study of bethanechol in patients with resectable PDA; assay type: in vivo, human
Protocol: Our ongoing pilot feasibility study assesses the impact of 1 week of a fixed dose of bethanechol on pharmacodynamics endpoints in resected pancreatic cancer specimens. […] Subjects receive 100 mg of bethanechol by mouth twice daily for 1 week, discontinuing bethanechol 24 hours prior to scheduled surgery. All subjects will be assessed for toxicity while receiving bethanechol, and for 30 days thereafter. The primary endpoint in the pilot study is a change in cell proliferation (Ki-67 index). […] We will compare gene expression profiles and regulatory networks between treated samples with matched controls in our dataset of >200 PDA, RNAseq analysis will be performed.

[2] = test system: Organoid cultures derived from LSL-K-Ras^G12D pancreata not treated by an Adeno-Cre virus; assay type: cell-based; settings: no Adeno-Cre virus (Kras not activated)
[3] = test system: human Panc1 cells; assay: Western blot of EGFR/MAPK and PI3K/AKT signaling, Panc1; assay type: cell-based
Protocol: To analyze EGFR and the MAPK and PI3K-Akt pathway in human and murine pancreatic cancer cell lines, cells were grown in 12-well plate to around ˜70% confluent, changed the 0.5% FBS medium, added the drugs respectively and incubated them for further 72 hrs incubation in a typical CO2 incubator (˜20% O2). After removing the medium, cells were washed twice with PBS, and protein extraction was performed on ice using RIPA buffer with protease inhibitor (Complete) (Roche) cocktail and phosphatase inhibitor (phosSTOP) (Roche). Protein samples were subsequently separated in 10% Bis-Tris Gel NuPAGE® electrophoresis using MES SDS Running Buffer (Invitrogen, CA, USA). After transfer to nitrocellulose, membranes were blocked with 5% BSA, and samples were probed with the following primary antibodies: p-EGFR (Cell Signaling), EGFR (Cell Signaling), p-BRAF (Cell Signaling), BRAF (Cell Signaling), p-ERK1/2 (phosphorylated p44/42 MAPK) (Thr202/Tyr204) (Cell Signaling), ERK1/2 (p44/42 MAPK) (Thr202/Tyr204) (Cell Signaling), p-PI3K (Cell Signaling), PI3K (Cell Signaling), p-Akt (Cell Signaling), Akt (Cell Signaling), and β-actin (Cell Signaling) followed by horseradish peroxidase-coupled secondary antibody. Immunoreactive bands were visualized using 5-bromo-4-chloro-3-indolyl phosphate/nitro blue tetrazolium and bands were quantified with ImageJ.
To analyze EGFR, MAPK and PI3K-AKT pathways in human and murine pancreatic cancer cell lines, cells were grown in 12-well culture plates to ˜70% confluency. The medium was then changed to 0.5% FBS medium, the respective drugs were added, and they were incubated for an additional 72 hours in a CO2 incubator (˜5% CO2). After removing the medium, cells were washed twice with PBS, and protein extraction was performed on ice using RIPA buffer with protease inhibitor (Complete, Roche) cocktail and a phosphatase inhibitor (phosSTOP, Roche). Protein samples were subsequently separated by 10% Bis-Tris Gel NuPAGE® electrophoresis using MES SDS Running Buffer (Invitrogen, CA, USA). After transfer to nitrocellulose, membranes were blocked with 5% BSA, and samples were probed with the following primary antibodies: p-EGFR (Cell Signaling), EGFR (Cell Signaling), p-BRAF (Cell Signaling), BRAF (Cell Signaling), p-ERK1/2 (phosphorylated p44/42 MAPK) (Thr202/Tyr204) (Cell Signaling), ERK1/2 (p44/42 MAPK) (Thr202/Tyr204) (Cell Signaling), p-PI3K (Cell Signaling), PI3K (Cell Signaling), p-AKT (Cell Signaling), AKT (Cell Signaling), and β-actin (Cell Signaling) followed by horseradish peroxidase-coupled secondary antibody. Immunoreactive bands were visualized using 5-bromo-4-chloro-3-indolyl phosphate/nitro blue tetrazolium and bands were quantified with ImageJ.

[4] = test system: Chrm1; assay: qRT-PCR of muscarinic receptor expression, murine PDAC cell lines; assay type: cell-based, mouse; settings: murine PDAC cell lines (Panc02 and K8282), compared to control
[5] = test system: primary human PDA organoids; assay: Primary human PDA organoids treated with pilocarpine; assay type: cell-based; settings: dose-dependent, 100DM pilocarpine in FIG. 21B
Text: To better understand the effect of growth inhibition by muscarinic agonists in human pancreatic epithelial cells, we generated primary human PDA organoids. Treatment with the broad muscarinic agonist, pilocarpine, reduced the number of viable organoids in a dose-dependent manner (FIGS. 21A-B). Treatment of human pancreatic cancer cells (Panc1) with pilocarpine reduced the size of the CD44+CD24+EpCAM+putative cancer stem cell population in a dose dependent manner (FIG. 21C) and inhibited tumor initiation in NOD/SCID mice (FIG. 21D). To better understand growth inhibition by muscarinic agonists, we analyzed changes in signaling molecules in animal models and PDA cell lines. […] Surprising, a number of signaling molecules were suppressed by both nonspecific and M1R-specific muscarinic agonists, including EGFR, B-RAF, ERK1/2, PI3K, and AKT kinase. These kinases all show reduced phosphorylation by muscarinic agonists, which was abrogated by treatment with muscarinic antagonists. Finally, we analyzed Panc-1 cells following pilocarpine treatment (1 mM, 72 hrs) using RNAseq, and noted that many of the genes suppressed by pilocarpine included EGFR and PI3K^17.

[6] = test system: murine PDAC cell lines (Panc02, K8282); assay: MTT assay, murine PDAC cell lines; assay type: cell-based, mouse; settings: agonist added to antagonist
Protocol: (§1) Cell proliferation in each cell line was assessed with a 3-(4,5-dimethylthiazol-2yl)-2,5-diphenyltetrazolium bromide (MTT) assay kit (Sigma) in accordance with the manufacturer's instructions. 3×10^3 cells were grown in 96-well plate to around ˜70% confluent, changed the 0.5% FBS medium, added the drugs respectively and incubated them for further 72 hrs incubation in a typical CO2 incubator (˜20% O2). Treated cells were rinsed twice with PBS, incubated in 10 ll MTT solution for 4 hr at 37° C., and 100 uL DMSO was added to each well. The absorbance of each well was measured at 570 nm using Tilter-Tech 96-well multiscanner (Becton Dickinson, Heidelberg, Germany). The relative number of viable cells compared with the number of cells without drug treatment was expressed as percent cell viability using the following formula:
(§2) Cell proliferation in each cell line was assessed with a 3-(4,5-dimethylthiazol-2yl)-2,5-diphenyltetrazolium bromide (MTT) assay kit (Sigma) in accordance with the manufacturer's instructions. 3×10^3 cells were grown in 96-well plate to ˜70% confluency, the media was changed to 0.5% FBS medium, the respective drugs were added, and they were incubated for an additional 72 hours in a CO2 incubator (˜5% CO2). Treated cells were rinsed twice with PBS, incubated in 10 ul MTT (5 mg/ml PBS) solution for 4 hours at 37° C., and 100 uL DMSO was then added to each well. The absorbance of each well was measured at 570 nm using a Tilter-Tech 96-well multiscanner (Becton Dickinson, Heidelberg, Germany). The relative number of viable cells compared with the number of cells without drug treatment was expressed as percent cell viability using the following formula: cell viability (%)=A570 of treated cells/A570 of untreated cells.

[7] = test system: CD44+CD24+EpCAM+ population of Panc1 and BxPC3 cells; assay: Flow cytometry (FACS) of cancer stem cell population; assay type: cell-based, human; settings: for CD44+CD24+EpCAM+ cancer stem cell population (FACS): human pancreatic cancer cells, 72 hours pilocarpine
Protocol: Panc-1 cells were grown in 6-well plate to around ˜70% confluent, changed the 0.5% FBS medium, added the drugs respectively and incubated them for further 72 hrs incubation in a typical CO2 incubator (˜20% O2). Afterwards, cells were kept on ice in blocking solution (PBS pH 7.2 containing ? 3% bovine serum albumin, 2 mM EDTA) for 20 minutes. Cells were then stained with a PE-conjugated antibody against CD24, a FITC-conjugated antibody against CD44, and an APC-conjugated antibody against CD326 (1:100—in blocking solution) on ice for 30 minutes. The cells were then washed, reconstituted in sorting buffer (PBS pH 7.2 containing 0.5% bovine serum albumin, 2 mM EDTA)+DAPI and analyzed using a BD FACSAria II.
Panc1 and BxPC3 cells were grown in 6-well plate to ˜70% confluency, the media was changed to 0.5% FBS medium, the respective drugs were added, and they were incubated for an additional 72 hrs in a typical CO2 incubator (˜5% CO2). Subsequently, cells were kept on ice in blocking solution (PBS pH 7.2 containing 3% bovine serum albumin, 2 mM EDTA) for 20 minutes. Cells were then stained with a PE-conjugated antibody against CD24, a FITC-conjugated antibody against CD44, and an APC-conjugated antibody against CD326 (1:100 in blocking solution) on ice for 30 minutes. The cells were then washed, reconstituted in sorting buffer (PBS pH 7.2 containing 0.5% bovine serum albumin, 2 mM EDTA)+DAPI and analyzed using a BD FACSAria II.

[8] = test system: human PDAC cell lines (MiaPaca2, Panc1); assay: MTT assay, human PDAC cell lines; assay type: cell-based
Protocol: as §1, §2

[9] = test system: CHRM1; assay: qRT-PCR of muscarinic receptor expression, human PDAC cell lines; assay type: cell-based; settings: human PDAC cell lines (MiaPaca2 and Panc1), compared to control

Compound | plasma TNFα levels ([1]; PDA patients, bethanechol 100 mg twice daily for 1 week, preliminary pilot data) | Ki-67, CD44, pERK and p-EGFR (IHC staining of PDA tissue) ([1]; bethanechol-treated patients compared to untreated patients) | other cytokine levels such as ICAM-1 and MIF ([1]; plasma of a study patient, pre- vs post-treatment, cytokine antibody array) | sphere forming capacity / growth of WT spheres [2] | phosphorylation of EGFR, BRAF, ERK1/2, PI3K and AKT kinases (western blot) ([3]; 72 hours) | ratios of p-EGFR/EGFR, p-BRAF/BRAF, p-ERK/ERK, p-PI3K/PI3K and p-AKT/AKT (densitometry) ([3]; single agent alone) | Chrm1 expression [4] | number of viable organoids [5] | increase in proliferation due to muscarinic antagonists [6] | CD44+CD24+EpCAM+ cancer stem cell population (FACS) [7] | CD44+CD24+EpCAM+ cancer stem cell population (FACS) ([7]; listed as Pilocarpine) | suppression of CD44+CD24+EpCAM+ cancer stem cells ([7]; pilocarpine at doses of 100-500 rμM, preliminary studies) [%] | proliferation (MTT assay) ([8]; 72 hours, 0.5% FBS medium) | increase in proliferation due to muscarinic antagonists ([8]; agonist added to antagonist) | Chrm1 expression [9]
CC(C[N+](C)(C)C)OC(N)=O (stereo not shown) [bethanechol, 2-[(aminocarbonyl)oxy]-N,N,N-trimethyl-1-propanaminium] | trend towards lower | might lead to a decrease | possible reductions | increased | – | – | – | – | – | – | – | – | – | – | –
CC[C@@H]1C(=O)OC[C@@H]1Cc1cncn1C [pilocarpine, (3S,4R)-3-ethyl-4-[(3-methylimidazol-4-yl)methyl]oxolan-2-one] | – | – | – | stimulates | significantly less phosphorylated | significantly decreased | decreased; also recorded: lower | reduced | blocked; also recorded: inhibited to some extent | marked suppression; also recorded: reduced; also recorded: Dose dependent decrease | remarkable suppression | > 50 | suppressed | blocked; also recorded: inhibited to some extent | decreased; also recorded: lower
